Patent US20190249215A1, “Three-Dimensional Cell-Derived Extracellular Matrix/Gel Systems” (Institute For Cancer Research d/b/a The Research Institute …, priority 2018, published 2019)

Columns and labels:
[1] = system: RFP-expressing KRAS cell spheroids; assay: Spheroid spreading assay; type: cell-based, human; conditions: KRAS spheroids within CAF-CDMs produced onto patho stiffness gels; 20 μM U0126 overnight
Procedure: Red fluorescence protein (RFP)-expressing KRAS cells generated in our laboratory were trypsinized and suspended in spheroid formation media (Irvine Scientific, Santa Ana, Calif., Catalog ID: 91130) and allowed to incubate overnight. Thirty μl drops containing 2.5×10^3 cells were carefully placed on a lid of a sterile petri dish. The dish was filled with 5 mL media and the lid with the “hanging drops” was carefully placed, drops face down, and incubated overnight. Spheroids were removed from the lids, one by one, placed onto the diverse substrates or CDMs, and allowed to adhere for 2 hours. Subsequently, the spheroid formation media was diluted with regular pancreatic epithelial growth media (see above). Following a 48-hour incubation, cell spreading was visualized using an inverted fluorescence microscope equipped with epifluorescent image acquisition capabilities. Data were normalized to the initial size of each spheroid at time 0 hour. When indicated, spheroids were treated overnight with 20 μM of the MEK1/2 inhibitor U0126 from Calbiochem or DMSO, while siRNA transfection. The images were processed using MetaMorph 7.8.1.0 software (Molecular Devices, Downingtown, Pa.). A minimum of 5 spheres per condition were analyzed in at least three independent experiments.

phospho-p90RSK = conditions: KRAS cells within CAF-CDMs produced onto patho gels; 20 μM U0126 overnight
Procedure: (§1) At the end of the experiments, KRAS cells were lysed with cell lysis buffer from Cell Signaling Technology (Danvers, Mass.) supplemented with Pierce™ Phosphatase and protease Inhibitor Mini Tablets (Cat Nos. 88667 and 88665, respectively) from Thermo Fisher Scientific (Waltham, Mass.). Proteins were SDS-PAGE dissolved and transferred to PVDF membranes. Blots were incubated with the following primary antibodies: Rabbit anti-human Phospho-p44/42 ERK1/2 (Thr^202/Tyr^204)(Cat No. 4370) and rabbit anti-human total-p44/42 ERK1/2 (Cat No. 9102) obtained from Cell Signaling Technology (Danvers, Mass.). Anti-phospho-p90RSK1 (Ser^380) (Cat No. 04-418) and anti-human glyceraldehyde 3-phosphate dehydrogenase (GAPDH) (Cat No. MAB374) obtained from Millipore (Billerica, Mass.). Horseradish peroxidase-conjugated, anti-species matched, secondary antibodies were obtained from Sigma Aldrich (St. Louis, Mo.). Protein bands were visualized using the Protein Simple FluorChemE System, (San Jose, Calif.). Nuclear levels of pERK1/2 were assessed using the Subcellular Protein Fractionation Kit (Thermo Scientific, Waltham, Mass.). Isolation of nuclear versus whole cell fractions was carried out according to the manufacturer's instructions.

pERK1/2 = conditions: KRAS cells within CAF-CDMs produced onto patho stiffness gels; 20 μM U0126 overnight; fractionated cell lysates
Procedure: as §1

N#CC(=C(N)Sc1ccccc1N)C(C#N)=C(N)Sc1ccccc1N [U0126, 1,4-diamino-2,3-dicyano-1,4-bis[2-aminophenylthio] butadiene]
KRAS spheroid area spread [1]: significant reduction in KRAS spheroid spread
phosphorylation levels of p90 ribosomal S6 kinase (pho-p90RSK) (phospho-p90RSK): downregulated
nuclear levels of pERK1/2 (pERK1/2): significant loss of pERK1/2 at nuclear locations
